{
  "source": "PubChem BioAssay AID1259409",
  "about": "(Chemical Carcinogenesis Research Information System (CCRIS), 2018)",
  "origin": "cited, not measured here",
  "system": "rodent chemically induced tumor inhibition, incidence and multiplicity",
  "experiment": "CCRIS tumor inhibitor studies",
  "settings": "Route [Inhibitor]: ORAL, Species: RAT, Strain/Sex: F344/MALE, Promoter: NONE USED",
  "data": [
    {"compound": "O=C1O[C@H]([C@@H](O)CO)C(O)=C1O", "values": [
      {"measurement": "tumour outcome (control, treated, inhibition, significance)", "setting": "Carcinogen: N-BIS(2-HYDROXYPROPYL)NITROSAMINE, 53609-64-6, Dose [Inhibitor]: 0, 5% IN DIET FOR 30 WK BEGINNING POST CARCINOGEN TREATMENT (STUDY DURATION: 32 WK), Target Tissue: Type of Lesion: BLADDER: ADENOMA, Dose [Carcinogen]: 0.1% IN DRINKING WATER FOR 2 WK", "value": "5%, 10%, -100%, not calculated"},
      {"measurement": "tumour outcome (control, treated, inhibition, significance)", "setting": "Carcinogen: N-BIS(2-HYDROXYPROPYL)NITROSAMINE, 53609-64-6, Dose [Inhibitor]: 0, 5% IN DIET FOR 30 WK BEGINNING POST CARCINOGEN TREATMENT (STUDY DURATION: 32 WK), Target Tissue: Type of Lesion: KIDNEY: TUMOR, Dose [Carcinogen]: 0.1% IN DRINKING WATER FOR 2 WK", "value": "10%, 30%, -200%, not calculated"},
      {"measurement": "tumour outcome (control, treated, inhibition, significance)", "setting": "Carcinogen: N-BIS(2-HYDROXYPROPYL)NITROSAMINE, 53609-64-6, Dose [Inhibitor]: 0, 5% IN DIET FOR 30 WK BEGINNING POST CARCINOGEN TREATMENT (STUDY DURATION: 32 WK), Target Tissue: Type of Lesion: LUNG: ADENOMA, Dose [Carcinogen]: 0.1% IN DRINKING WATER FOR 2 WK", "value": "100%, 100%, 0%, not significant"},
      {"measurement": "tumour outcome (control, treated, inhibition, significance)", "setting": "Carcinogen: N-BIS(2-HYDROXYPROPYL)NITROSAMINE, 53609-64-6, Dose [Inhibitor]: 0, 5% IN DIET FOR 30 WK BEGINNING POST CARCINOGEN TREATMENT (STUDY DURATION: 32 WK), Target Tissue: Type of Lesion: LUNG: CARCINOMA, Dose [Carcinogen]: 0.1% IN DRINKING WATER FOR 2 WK", "value": "45%, 20%, 56%, not calculated"},
      {"measurement": "tumour outcome (control, treated, inhibition, significance)", "setting": "Carcinogen: N-BIS(2-HYDROXYPROPYL)NITROSAMINE, 53609-64-6, Dose [Inhibitor]: 0, 5% IN DIET FOR 30 WK BEGINNING POST CARCINOGEN TREATMENT (STUDY DURATION: 32 WK), Target Tissue: Type of Lesion: THYROID: ADENOMA, Dose [Carcinogen]: 0.1% IN DRINKING WATER FOR 2 WK", "value": "5%, 30%, -500%, not calculated"},
      {"measurement": "tumour outcome (control, treated, inhibition, significance)", "setting": "Carcinogen: N-BIS(2-HYDROXYPROPYL)NITROSAMINE, 53609-64-6, Dose [Inhibitor]: 0, 5% IN DIET FOR 30 WK BEGINNING POST CARCINOGEN TREATMENT (STUDY DURATION: 32 WK), Target Tissue: Type of Lesion: THYROID: CARCINOMA, Dose [Carcinogen]: 0.1% IN DRINKING WATER FOR 2 WK", "value": "20%, 10%, 50%, not calculated"},
      {"measurement": "tumour outcome (control, treated, inhibition, significance)", "setting": "Carcinogen: N-BUTYL-N-(4-HYDROXYBUTYL)NITROSAMINE, 3817-11-6, Dose [Inhibitor]: 4.45% IN BASAL DIET ADMINISTERED SIMULTANEOUSLY WITH CARCINOGEN DOSE FOR 20 WK (STUDY DURATION: 20 WK), Target Tissue: Type of Lesion: BLADDER: CARCINOMA, Dose [Carcinogen]: 0.025% IN DRINKING WATER FOR 20 WK", "value": "3/15 (20%), 6/14 (43%), -115%, not calculated"},
      {"measurement": "tumour outcome (control, treated, inhibition, significance)", "setting": "Carcinogen: N-BUTYL-N-(4-HYDROXYBUTYL)NITROSAMINE, 3817-11-6, Dose [Inhibitor]: 4.45% IN BASAL DIET ADMINISTERED SIMULTANEOUSLY WITH CARCINOGEN DOSE FOR 20 WK (STUDY DURATION: 20 WK), Target Tissue: Type of Lesion: BLADDER: PAPILLOMA, Dose [Carcinogen]: 0.025% IN DRINKING WATER FOR 20 WK (FOR A TOTAL INTAKE OF 4.0 MMOL/RAT)", "value": "4/15 (27%), 4/14 (29%), -7%, not calculated"},
      {"measurement": "tumour outcome (control, treated, inhibition, significance)", "setting": "Carcinogen: N-BUTYL-N-(4-HYDROXYBUTYL)NITROSAMINE, 3817-11-6, Dose [Inhibitor]: 5% DIET DAILY FOR 34 WK BEGINNING POST CARCINOGEN TREATMENT (STUDY DURATION: 38 WK), Target Tissue: Type of Lesion: URINARY BLADDER: PAPILLOMA, Dose [Carcinogen]: 0.01% IN DRINKING WATER FOR 4 WK", "value": "33%, 21%, 36%, not significant"},
      {"measurement": "tumour outcome (control, treated, inhibition, significance)", "setting": "Carcinogen: N-BUTYL-N-(4-HYDROXYBUTYL)NITROSAMINE, 3817-11-6, Dose [Inhibitor]: 5% IN BASAL DIET ADMINISTERED SIMULTANEOUSLY WITH CARCINOGEN DOSE FOR 20 WK (STUDY DURATION: 20 WK), Target Tissue: Type of Lesion: BLADDER: CARCINOMA, Dose [Carcinogen]: 0.025% IN DRINKING WATER FOR 20 WK", "value": "3/15 (20%), 6/15 (40%), -100%, not calculated"},
      {"measurement": "tumour outcome (control, treated, inhibition, significance)", "setting": "Carcinogen: N-BUTYL-N-(4-HYDROXYBUTYL)NITROSAMINE, 3817-11-6, Dose [Inhibitor]: 5% IN BASAL DIET ADMINISTERED SIMULTANEOUSLY WITH CARCINOGEN DOSE FOR 20 WK (STUDY DURATION: 20 WK), Target Tissue: Type of Lesion: BLADDER: PAPILLOMA, Dose [Carcinogen]: 0.025% IN DRINKING WATER FOR 20 WK (FOR A TOTAL INTAKE OF 4.7 MMOL/RAT)", "value": "4/15 (27%), 2/15 (13%), 50%, not significant"},
      {"measurement": "tumour outcome (control, treated, inhibition, significance)", "setting": "Carcinogen: N-ETHYL-N-(4-HYDROXYBUTYL)NITROSAMINE, 54897-62-0, Dose [Inhibitor]: 4.45% IN BASAL DIET ADMINISTERED SIMULTANEOUSLY WITH CARCINOGEN DOSE FOR 20 WK (STUDY DURATION: 20 WK), Target Tissue: Type of Lesion: BLADDER: CARCINOMA, Dose [Carcinogen]: 0.021% IN DRINKING WATER FOR 20 WK", "value": "13/15 (87%), 14/15 (93%), -8%, not calculated"},
      {"measurement": "tumour outcome (control, treated, inhibition, significance)", "setting": "Carcinogen: N-ETHYL-N-(4-HYDROXYBUTYL)NITROSAMINE, 54897-62-0, Dose [Inhibitor]: 4.45% IN BASAL DIET ADMINISTERED SIMULTANEOUSLY WITH CARCINOGEN DOSE FOR 20 WK (STUDY DURATION: 20 WK), Target Tissue: Type of Lesion: BLADDER: PAPILLOMA, Dose [Carcinogen]: 0.021% IN DRINKING WATER FOR 20 WK", "value": "14/15 (93%), 15/15 (100%), -7%, not calculated"},
      {"measurement": "tumour outcome (control, treated, inhibition, significance)", "setting": "Carcinogen: N-ETHYL-N-(4-HYDROXYBUTYL)NITROSAMINE, 54897-62-0, Dose [Inhibitor]: 5% IN BASAL DIET ADMINISTERED SIMULTANEOUSLY WITH CARCINOGEN DOSE FOR 20 WK (STUDY DURATION: 20 WK), Target Tissue: Type of Lesion: BLADDER: CARCINOMA, Dose [Carcinogen]: 0.021% IN DRINKING WATER FOR 20 WK", "value": "13/15 (87%), 13/15 (87%), 0%, not significant"}
    ]}
  ]
}
